Here are results for 18 compounds from US6344456B1, “Piperazinone derivatives and their uses” (Laboratoire L. Lafon, priority 1998, dated 2002).

Structures can show the parent of a compound that is named as a salt. Where two headings read alike, the source gives them in different places. A value given as a limit tells only on which side of the number the result lay.

Experiment [1] concerns Guinea Pig Platelets. The experiment is described as follows: In vitro inhibition of collagen-induced platelet aggregation, guinea pig platelet-rich plasma. It is filed as cell-based. Particulars: guinea pig PRP, collagen 1 μg/ml, 3 minutes of contact at 37° C. On the procedure:
(§1) A study of the inhibitory activity of the compounds of formula I on platelet aggregation was carried out in vitro, i.e. by direct contact of solutions of variable concentrations of the compounds with platelets freshly separated from a sample of whole blood, taken under standardized conditions, from laboratory animals (guinea pigs) and from healthy human subjects who have not received any substances or drugs that might interfere with blood clotting. The anti-platelet-aggregating activity was also studied ex vivo/vitro, i.e. after administration of the substances claimed in guinea pigs to measure the intensity and duration of the anti-aggregating action induced by the fraction of the test product absorbed and circulating in the blood.
1.1. Studies on Guinea Pig Platelets
Blood is taken by intracardiac puncture from male Dunkin-Hartley guinea pigs (weighing about 330 g), at a rate of 4.5 ml per 0.5 ml of trisodium citrate (concentration of the aqueous solution: 1.55%) in order to prevent all trace of clotting. The platelet-rich plasma (PRP) is obtained by centrifuging the tubes of whole blood for 15 minutes at 150 g.
The PRPs are collected as. “pools”. The platelets contained in these pools are counted using a Coulter ZM haematology automatic device: if necessary, a dilution is carried out in order for the platelet concentration in the plasma to be between 200,000 and 400,000 platelets/mm^3. Simultaneously, other samples of these pools serve to prepare the platelet-poor plasma (PPP) by centrifugation at 1,500 g for 15 minutes.
The kinetic study of the platelet aggregation is carried out by adding a collagen solution (1 μg/ml) to a volume of PRP, using a Chrono-log Corporation aggregometer (490-D1 or 560 VS) which uses an optical detection of the appearance of the thrombus.
The measurements of the aggregation inhibition are carried out after 3 minutes of contact at 37° C. with agitation.

Experiment [2] relates to Human Platelets. The experiment is described as follows: In vitro inhibition of collagen-induced platelet aggregation, human platelet-rich plasma. It is filed as cell-based. Particulars: human PRP, collagen 5 μg/ml, 3 minutes of contact at 37° C., read-out: IC50 (M) in vitro Man. On the procedure:
A study of the inhibitory activity of the compounds of formula I on platelet aggregation was carried out in vitro, i.e. by direct contact of solutions of variable concentrations of the compounds with platelets freshly separated from a sample of whole blood, taken under standardized conditions, from laboratory animals (guinea pigs) and from healthy human subjects who have not received any substances or drugs that might interfere with blood clotting. The anti-platelet-aggregating activity was also studied ex vivo/vitro, i.e. after administration of the substances claimed in guinea pigs to measure the intensity and duration of the anti-aggregating action induced by the fraction of the test product absorbed and circulating in the blood. 1.2 Study on Human Platelets Venous blood is taken from a group of ten healthy human subjects of the same age, by puncture into a vein of the fold of the elbow and is collected in a glass tube containing aqueous 0.129 M sodium citrate solution (1 volume of citrate solution per 9 volumes of blood). Each tube is then centrifuged a first time at 20° C. and 100 g for 15 minutes in order to obtain the platelet-rich plasma (PRP); after removing this PRP, the tube is again centrifuged at 2,000 g for 15 minutes in order this time to remove the platelet-poor plasma (PPP). For each identified sample of PRP, the platelets are counted using a Coulter ZM counter. […] A control test intended to check the possible effect of the solvents (reference value) on the platelet aggregation is introduced into each measurement series, and is measured after 3 minutes of contact at 37° C. with agitation.

For experiment [3], the system named is platelet aggregation induced by collagen. In words: Ex vivo/vitro anti-platelet-aggregating activity in guinea pigs after gastric administration. More on the design: species or system guinea pig. Particulars: for % of g.r. inhibition guinea pig ex vivo d = 150 mg/kg −1 h: administered 1 h before blood is taken; for % of g.r. inhibition guinea pig ex vivo d = 150 mg/kg −2 h: administered 2 h before blood is taken; for anti-aggregating action ex-vivo in guinea pigs, oral dose 10 mg/kg, 1h: administered 1h before the aggregation test. On the procedure:
as §1
2. ex vivo/vitro Pharmacological Study in Guinea Pigs
Evaluation of the anti-platelet-aggregating activity of the compounds is carried out in the same guinea pigs as those mentioned above (Dunkin-Hartley strain). The administration of each product in a range of doses from 150 mg/kg to 10 mg/kg and of each vehicle (5 ml/kg) is carried out via the gastric route (g.r.) 1h or 2h or 4h or 6h or 8h or 12h before blood is taken from the guinea pigs fasted the day before. The allocation of the treatments to the animals is random.
The blood is taken and then treated under the same conditions as those described above for the in vitro studies.
The results of the inhibition of the platelet aggregation obtained for each test concentration make it possible to calculate the IC50 concentration of each test product and the kinetics of the inhibitory effect and its duration of action.

Setting [4] is: Cavia porcellus, Platelet, 0.05 h.

In general, IC50 refers to the concentration needed to halve the response being measured. Take “3-{[2-(4-{4-[amino(imino)methyl]phenyl}-2-oxopiperazino)acetyl]amino}-3-(pyridyl)propanoic acid acetate [Example 21]”: 0.16 µM corresponded to half-maximal inhibition in experiment [1] (IC50). Further, the half-maximal inhibitory concentration (IC50) in experiment [2] amounted to 8.6e-07 M. Further, in experiment [3], the “% of g.r. inhibition guinea pig ex vivo d = 150 mg/kg −1 h” value is −78% and the “% of g.r. inhibition guinea pig ex vivo d = 150 mg/kg −2 h” value was −79%.
The compound `CCOC(=O)CCNC(=O)CN1CCN(c2ccc(C(N)=NO)cc2)CC1=O` [Example 1, Ethyl 3-{[12-(4-{4-[amino(hydroxyimino)methyl]phenyl}-2-oxopiperazino)acetyl]amino}propanoate] gave an IC50 in experiment [1] of more than 1000 µM. Further, in experiment [3], the “% of g.r. inhibition guinea pig ex vivo d = 150 mg/kg −1 h” value is listed as −72% and the “% of g.r. inhibition guinea pig ex vivo d = 150 mg/kg −2 h” value was −73%.
On to `CCOC(=O)CC(NC(=O)CN1CCN(c2ccc(C(N)=NO)cc2)CC1=O)c1ccc2c(c1)OCO2` (stereo not drawn) [Example 3, Ethyl 3-{[2-(4-{4-[amino(hydroxyimino)methyl]phenyl}-2-oxopiperazino)acetyl]amino}-3-(1,3-benzodioxol-5-yl)propanoate], for which the “anti-aggregating action ex-vivo in guinea pigs, oral dose 10 mg/kg, 1h” value in experiment [3] (10 mg/kg) was determined as 69%. In addition, the “anti-aggregating action ex-vivo in guinea pigs, oral dose 10 mg/kg, 2h” value in experiment [3] (10 mg/kg, administered 2h before the aggregation test) turned out to be 72%. Also, in experiment [3], the “% of g.r. inhibition guinea pig ex vivo d = 150 mg/kg −1 h” value was −72% and the “% of g.r. inhibition guinea pig ex vivo d = 150 mg/kg −2 h” value is reported as −69%.
As for `CCOC(=O)CC(CCc1ccccc1)NC(=O)CN1CCN(c2ccc(C(N)=NO)cc2)CC1=O` (stereo not drawn) [Example 7, Ethyl 3-{[2-(4-{4-[amino(hydroxyimino)methyl]phenyl}-2-oxopiperazino)acetyl]amino}-5-phenylpentanoate], the “anti-aggregating action ex-vivo in guinea pigs, oral dose 10 mg/kg, 1h” value in experiment [3] (10 mg/kg) is given as 72%.
The compound `CC(=O)O.CCOC(=O)CCNC(=O)CN1CCN(c2ccc(C(=N)N)cc2)CC1=O` [Example 16, Ethyl 3-{[2-(4-{4-[amino(imino)methyl]phenyl}-2-oxopiperazino)acetyl]amino}proanoate acetate] returned a half-inhibitory concentration (IC50) in experiment [1] of 3.8 µM. In experiment [3], the “% of g.r. inhibition guinea pig ex vivo d = 150 mg/kg −1 h” value was −75% and the “% of g.r. inhibition guinea pig ex vivo d = 150 mg/kg −2 h” value was −73%.
On to `Cl.N=C(N)c1ccc(N2CCN(CC(=O)NCCC(=O)O)C(=O)C2)cc1` [Example 17, 3-{[2-(4-{4-[amino(imino)methyl]phenyl}-2-oxopiperazino)acetyl]amino}propanoic acid hydrochloride], for which the IC50 in experiment [1] (setting [4]) worked out at 4.8 µM. In addition, in experiment [2] (Platelet, 0.05 h), the IC50 turned out to be 5.2e-06 M. In experiment [3], the “% of g.r. inhibition guinea pig ex vivo d = 150 mg/kg −1 h” value is −43% and the “% of g.r. inhibition guinea pig ex vivo d = 150 mg/kg −2 h” value is −38%.
`CC(=O)O.CCOC(=O)CC(NC(=O)CN1CCN(c2ccc(C(=N)N)cc2)CC1=O)c1ccc2c(c1)OCO2` (stereo not drawn) [Example 18, Ethyl 3-{[2-(4-{4-[amino(imino)methyl]phenyl}-2-oxopiperazino)acetyl]amino}-3-(1,3-benzodioxol-5-yl)propanoate acetate]: it took 0.2 µM to reach half-maximal inhibition in experiment [1] (setting [4]) (IC50). Moreover, the 50% inhibitory concentration (IC50) in experiment [2] (Platelet, 0.05 h) was found to be 8.1e-05 M. In experiment [3], the “% of g.r. inhibition guinea pig ex vivo d = 150 mg/kg −1 h” value is on record as −70% and the “% of g.r. inhibition guinea pig ex vivo d = 150 mg/kg −2 h” value is listed as −69%.
Consider `CCOC(=O)CC(CCc1ccccc1)NC(=O)CN1CCN(c2ccc(C(=N)N)cc2)CC1=O` (stereo not drawn) [Example 22, Ethyl 3-{[2-(4-{4-[amino(imino)methyl]phenyl}-2-oxopiperazino)acetyl]amino}-5-phenylpentanoate acetate], for which the IC50 was 0.51 µM in experiment [1] (setting [4]) and 7.1e-05 M in experiment [2] (Platelet, 0.05 h).
As for `CCOC(=O)CC(NC(=O)CN1CCN(c2ccc(C(=N)N)cc2)CC1=O)C1CCCCC1` (stereo not drawn) [Example 23, Ethyl 3-{[2-(4-{4-[amino(imino)methyl]phenyl}-2-oxopiperazino)acetyl]amino}-3-cyclohexylpropanoate acetate], the IC50 in experiment [1] (setting [4]) worked out at 46 µM.
Still for that read-out and setting: in the case of `CCOC(=O)CC(CC(C)C)NC(=O)CN1CCN(c2ccc(C(=N)N)cc2)CC1=O` (stereo not drawn) [Example 24, Ethyl 3-{[2-(4-{4-[amino(imino)methyl]phenyl}-2-oxopiperazino)acetyl]amino}-5-methylhexanoate acetate] it was 4.6 µM; in that of `CCOC(=O)CC(NC(=O)CN1CCN(c2ccc(C(=N)N)cc2)CC1=O)C(C)(C)C` (stereo not drawn) [Example 25, Ethyl 3-{[2-(4-{4-[amino(imino)methyl]phenyl}-2-oxopiperazino)acetyl]amino}-4,4-dimethylpentanoate acetate], 440 µM; in that of `CCOC(=O)CC(NC(=O)CN1CCN(c2ccc(C(=N)N)cc2)CC1=O)C(C)C` (stereo not drawn) [Example 26, Ethyl 3-{[2-(4-{4-[amino(imino)methyl]phenyl}-2-oxopiperazino)acetyl]amino}-4-methylpentanoate acetate], 4.5 µM.
With `CC(=O)O.CCOC(=O)CCNC(=O)CN1CCN(c2ccc(C(=N)N)cc2)C(=O)C1` [Example 27, Ethyl 3-{[2-(4-{4-[amino(imino)methyl]phenyl}-3-oxopiperazino)acetyl]amino}propanoate acetate], the half-inhibitory concentration (IC50) in experiment [1] (setting [4]) came out at 38 µM. Besides, in experiment [3], the “% of g.r. inhibition guinea pig ex vivo d = 150 mg/kg −1 h” value was −8% and the “% of g.r. inhibition guinea pig ex vivo d = 150 mg/kg −2 h” value was −9%.
Compound `CCOC(=O)CC(CCc1ccccc1)NC(=O)CN1CCN(c2ccc(C(=N)N3CCCCC3)cc2)CC1=O` (stereo not drawn) [Example 32, Ethyl 3-{[2-(4-{4-[imino(piperidino)methyl]phenyl}-2-oxopiperazino)acetyl]amino}-5-phenylpentanoate] registered an IC50 in experiment [1] (setting [4]) of 2.4 µM.
Same read-out and setting: as for `CCOC(=O)CC(CCc1ccccc1)NC(=O)CN1CCN(c2ccc(C(=N)N3CCOCC3)cc2)CC1=O` (stereo not drawn) [Example 33, Ethyl 3-{[2-{4-{4-[imino(morpholino)methyl]phenyl}-2-oxopiperazino)acetyl]amino)-5-phenylpentanoate], the figure is 0.65 µM; as for `CCOC(=O)CC(NC(=O)CN1CCN(c2ccc(C(=N)N3CCCCC3)cc2)CC1=O)c1ccc2c(c1)OCO2` (stereo not drawn) [Example 34, Ethyl 3-(1,3-benzodioxol-5-yl)-3-{[2-(4-{4-[imino(piperidino)methyl]phenyl}-2-oxopiperazino)-acetyl]amino}propanoate hydrochloride], 0.99 µM; as for `CCOC(=O)CC(NC(=O)CN1CCN(c2ccc(C(=N)N3CCOCC3)cc2)CC1=O)c1ccc2c(c1)OCO2` (stereo not drawn) [Example 35, Ethyl 3-(1,3-benzodioxol-5-yl)-3-{[2-(4-{4-[imino-(morpholino)methyl]phenyl}-2-oxopiperazino)acetyl]-amino}propanoate hydrochloride], 0.47 µM.
In turn, “Ethyl 3-{[2-(4-{4-[amino(hydroxyimino)methyl]phenyl}-2-oxopiperazino)acetyl]amino}-3-(pyridyl)propanoate [Example 5]” returned an IC50 in experiment [1] of 100 µM. Further, in experiment [3], the “% of g.r. inhibition guinea pig ex vivo d = 150 mg/kg −1 h” value was −72% and the “% of g.r. inhibition guinea pig ex vivo d = 150 mg/kg −2 h” value is −75%.
